Measurements as given in patent US20170304288A1, “Formulations of Methionine Aminopeptidase Inhibitors for Treating Infectious Diseases” (Texas Southern University, priority 2013, published 2017).
Values after ≈ are worked out from the molar mass of the structure shown. Read-outs that look alike come from different tables or passages of the source. Marks after values point to notes of the source that are not given here.

Tests used:
[1] = tested on: E. faecalis OG1RF; test: Liquid-based C. elegans infection model, survival; assay type: in vivo, Enterococcus faecalis
[2] = tested on: E. faecalis OG1RF; test: Assay of E. faecalis inhibition (MIC) in BHI culture; details: Enterococcus faecalis, read-out: Minimum Inhibitory Concentration MIC30 OG1RF
[3] = tested on: E. faecalis V583; test: Liquid-based C. elegans infection model, survival
[4] = tested on: plasma protein; test: Plasma protein binding in rat plasma
[5] = tested on: Pseudomonas aeruginosa (PA14); test: Screening against P. aeruginosa in LB and SK media
[6] = tested on: E. faecalis OG1RF; test: Bacterial viability (CFU) in infected nematodes after treatment; assay type: in vivo, Enterococcus faecalis; details: 4×10^−11 μg/mL, after three days of treatment
Protocol: Young Adult nematodes sequentially preinfected with E. faecalis for 5 h. The nematodes were washed three times with sterile […] and collected by centrifugation between each wash and then transferred into tubes. […] The nematodes were washed twice in 25 mM Tetramisole and transferred to 6 well plates containing 20% BHI and the inhibitors to recover for 48 h and 72 h. After recovery time elapsed, nematodes were then transferred into an eppendorf tube containing 200 μl of M9 and ground using motorized pestle for 1 min and tube was briefly vortexed.

[7] = Pharmacokinetic study in male Sprague Dawley rats; assay type: in vivo; details: rat; for Cmax / clearance / bioavailability / half-life / Vd: male, Sprague Dawley, plasma; for bioavailability: read-out: Fabs (absolute bioavailability); for Vd: read-out: VD (volume of distribution)
From the text: Pharmacokinetic evaluation elucidates the fate of compound 5 in living systems. The pharmacokinetic study of compound 5 was also a means to verify the applicability of the LC-MS/MS assay method and the formulations. An adult male Sprague Dawley rat model was the preferred biological system for this experiment based on the similarity to humans in metabolism and minimal interference of hormones with metabolism. Briefly, male Sprague Dawley rats (n=4 for IV group, n=3 for subcutaneous and oral groups each, body weight: 300-350 g) were cannulated through the jugular vein under anesthesia (using a cocktail of ketamine: acepromazine: xylazine at a ratio of 50: 3.3: 3.3 mg/kg). On the following day, the optimal IV co-solvent formulation was diluted five times with normal saline to 1 mg/mL. The formulation for subcutaneous and oral administration was diluted with equal amount of normal saline to 3.75 mg/mL. Each rat was administered a 2 mg/kg IV bolus dose, 10 mg/kg subcutaneous dose or 20 mg/kg oral dose of compound 5. Heparinized blood samples were withdrawn from each rat at 5, 10, 15, 30 mins, 1, 2, 4, 6, 8, 12, 24, 48, 72, 96, 144 h after injection. The blood samples were centrifuged at 14,000 rpm for 6 min and the supernatant plasma obtained and stored at −80° C. until LC-MS/MS analysis for the concentration of compound 5. Urine samples were also collected at 0, 4, 8, 12, and 24 h. The plasma and urine samples were analyzed (within 7 days) using the developed LC/MS/MS method to determine the concentration of compound 5. FIG. 19A-D show plots of the plasma concentration of compound 5 against time.
The pharmacokinetic parameters for each rat were determined with Phoenix WinNonlin 6.3 software (Pharsight Corporation, Mountain View, Calif., USA) a non-compartmental analysis and a two compartment, which best described the fit for the IV bolus administration of compound 5, based on the observed and predicted fits of the plasma concentration versus time plot, the reduction in the sums of squares, and the Akaike's information criterion (AIC) for comparing compartmental models (5).
The weighting scheme of concentration^−2 (Y^−2) was used to determine the model that best fits the individual profiles. […] The plasma concentration -time profiling following 20 mg/Kg oral and 10 mg/kg subcutaneous doses of compound 5 is shown in FIG. 22C.

[8] = Solubility in various solvents, shaker method; assay type: physicochemical; details: for solubility at 72 h: thermodynamic from solid, read-out: Mean Solubility ± SD
Protocol: Assessment of the solubility of compound 5 in various solvents is important in developing suitable formulations for preclinical and clinical studies. The solubility of compound 5 in water, ethanol, poly ethylene glycol 400, propylene glycol monocapryrate type I (PGMC), propylene glycol monocapryrate type II (CAPYROL 90), dimethyl sulfoxide (DMSO), dimethyl acetamide (DMA), TWEEN 80, TWEEN 20, paraffin oil, soybean oil, and olive oil were determined by the shaker method. Briefly, excess amount of compound 5 was added to each of the selected solvents in a scintillation vial and placed on a reciprocating shaker to shake at room temperature for 72 h. The samples were centrifuged at 14,000 rpm for 10 min and subsequently filtered through a 0.22 μm filtration unit; the resulting filtrate was analyzed by HPLC-UV to determine the amount of compound 5 dissolved in the solvents. The experiment was conducted in triplicate.

[9] = iv, 2 mg/kg, Intravenous (Dose: 2 mg/kg), non-compartmental analysis
[10] = iv, 2 mg/kg, Intravenous (Dose: 2 mg/kg), two compartment model
[11] = po, 20 mg/kg, Oral (Dose: 20 mg/kg), non-compartmental analysis
[12] = sc, 10 mg/kg, Subcutaneous (Dose: 10 mg/kg), non-compartmental analysis
[13] = Intravenous (Dose: 2 mg/kg), two compartment model
[14] = Oral (Dose: 20 mg/kg), non-compartmental analysis
[15] = Oral (Dose: 20 mg/kg), two compartment model
[16] = Subcutaneous (Dose: 10 mg/kg), non-compartmental analysis
[17] = Subcutaneous (Dose: 10 mg/kg), two compartment model

SMILES: Oc1c(Br)cc(Cl)c2cccnc12 [Compound 5, 7-bromo-5-chloroquinolin-8-ol]
- survival of the nematodes at Maximum protective concentration ([1]; 4×10^−4 μg/mL): ~80%
- survival of infected animals compared to tetracycline ([1]; 4×10^−5 μg/mL to 4×10^−4 μg/mL): survived just as well, or better, than animals treated with tetracycline
- MPC (Minimum Protective Concentration) OG1RF ([1]; C. elegans): 4e-11 µg/mL
- MmaxPC (Maximum Protective Concentration) OG1RF ([1]; C. elegans): 0.0004 µg/mL
- MIC [2]: 2.5 to 5 µg/mL (≈ 9.67 to 19.3 µM)
- MPC (Minimum Protective Concentration) V583 [3]: 4e-12 µg/mL
- Bound fraction (%) ± SD ([4]; Concentration 5 μg/mL): 91.0 ± 0.6%
- Bound fraction (%) ± SD ([4]; Concentration 25 μg/mL): 96.3 ± 1.4%
- Bound fraction (%) ± SD ([4]; Concentration 50 μg/mL): 98.3 ± 0.3%
- MIC ([5]; PA14, read-out: MIC30 P. aeruginosa): < 2.5 µg/mL
- inhibition at 2.5 µg/mL ([5]; PA14, read-out: inhibition of P. aeruginosa): ~80%
- drop in CFU [6]: 50 fold
- Cmax [7, 9]: 2560 ± 480 ng/mL
- clearance ([7]; iv, 2 mg/kg, Intravenous (Dose: 2 mg/kg), non-compartmental analysis, read-out: Cl- (total body clearance) (converted)): 1.67 mL/min/kg
- bioavailability [7, 9]: 100%
- half-life ([7]; iv, 2 mg/kg, Intravenous (Dose: 2 mg/kg), non-compartmental analysis, read-out: T1/2 (elimination half-life) (converted)): 176 ± 30.5 h
- Vd [7, 9]: 24.6 ± 1.19 L/kg
- Cmax [7, 10]: 2600 ± 560 ng/mL
- clearance ([7]; iv, 2 mg/kg, Intravenous (Dose: 2 mg/kg), two compartment model, read-out: Cl (total body clearance) (converted)): 2.17 mL/min/kg
- half-life ([7]; iv, 2 mg/kg, Intravenous (Dose: 2 mg/kg), two compartment model, read-out: T1/2α (distribution half-life) (converted)): 0.19 ± 0.02 h
- half-life ([7]; iv, 2 mg/kg, Intravenous (Dose: 2 mg/kg), two compartment model, read-out: T1/2β (elimination half-life) (converted)): 109 ± 19.4 h
- Vd [7, 10]: 21.6 ± 1.32 L/kg
- Cmax [7, 11]: 1730 ± 380 ng/mL
- bioavailability [7, 11]: 4.6%
- half-life ([7]; po, 20 mg/kg, Oral (Dose: 20 mg/kg), non-compartmental analysis, read-out: T1/2 (elimination half-life) (converted)): 8.21 h
- Cmax ([7]; po, 20 mg/kg, Oral (Dose: 20 mg/kg), two compartment model): 1670 ± 600 ng/mL
- half-life ([7]; po, 20 mg/kg, Oral (Dose: 20 mg/kg), two compartment model, read-out: T1/2abs (absorption half-life) (converted)): 0.14 ± 0.02 h
- half-life ([7]; po, 20 mg/kg, Oral (Dose: 20 mg/kg), two compartment model, read-out: T1/2α (distribution half-life) (converted)): 0.33 ± 0.01 h
- half-life ([7]; po, 20 mg/kg, Oral (Dose: 20 mg/kg), two compartment model, read-out: T1/2β (elimination half-life) (converted)): 7.05 ± 1.88 h
- Cmax [7, 12]: 910 ± 70 ng/mL
- bioavailability [7, 12]: 15.7%
- half-life ([7]; sc, 10 mg/kg, Subcutaneous (Dose: 10 mg/kg), non-compartmental analysis, read-out: T1/2 (elimination half-life) (converted)): 36.8 ± 2.87 h
- Cmax ([7]; sc, 10 mg/kg, Subcutaneous (Dose: 10 mg/kg), two compartment model): 970 ± 50 ng/mL
- half-life ([7]; sc, 10 mg/kg, Subcutaneous (Dose: 10 mg/kg), two compartment model, read-out: T1/2abs (absorption half-life) (converted)): 0.376 ± 0.01 h
- half-life ([7]; sc, 10 mg/kg, Subcutaneous (Dose: 10 mg/kg), two compartment model, read-out: T1/2α (distribution half-life) (converted)): 1.66 ± 0.65 h
- half-life ([7]; sc, 10 mg/kg, Subcutaneous (Dose: 10 mg/kg), two compartment model, read-out: T1/2β (elimination half-life) (converted)): 51.5 ± 16.1 h
- AUC0-∞ ([7]; Intravenous (Dose: 2 mg/kg), non-compartmental analysis): 10.3 ± 1 mg/L/h
- A (coefficient of α-phase) [7, 13]: 2.51 ± 0.56 mg/L
- AUC0-∞ [7, 13]: 15.7 ± 1.96 mg/L/h
- B (coefficient of β-phase) [7, 13]: 0.09 ± 0.01 mg/L
- AUC0-∞ [7, 14]: 4.73 ± 0.97^a mg/L/hr
- Cl- (total body clearance) [7, 14]: 4.72 ± 1.20 L/kg/h
- VD (volume of distribution) [7, 14]: 63.9 ± 34.3 L/kg
- Fabs (absolute bioavailability) ([7]; Oral (Dose: 20 mg/kg), non-compartmental analysis, 20 mg/kg): 4.59 ± 1.33%
- A (coefficient of α-phase) [7, 15]: 4.29 ± 0.42 mg/L
- AUC0-∞ [7, 15]: 4.27 ± 1.69 mg/L/h
- B (coefficient of β-phase) [7, 15]: 0.37 ± 0.24 mg/L
- Cl (total body clearance) [7, 15]: 92.3 ± 36.3 mL/min/kg
- VD (volume of distribution) [7, 15]: 34.8 ± 21.8 L/kg
- AUC0-∞ [7, 16]: 8.14 ± 0.23^c mg/L/hr
- Cl- (total body clearance) [7, 16]: 1.23 ± 0.04^c L/kg/hr
- VD (volume of distribution) [7, 16]: 65.0 ± 3.77^c L/kg
- A (coefficient of α-phase) [7, 17]: 2.05 ± 0.57 mg/L
- AUC0-∞ [7, 17]: 8.68 ± 0.92 mg/L/h
- B (coefficient of β-phase) [7, 17]: 0.08 ± 0.02 mg/L
- Cl (total body clearance) [7, 17]: 19.5 ± 2 mL/min/kg
- VD (volume of distribution) [7, 17]: 45.8 ± 5.95 L/kg
- Mean Solubility ± SD ([8]; Dimethyl acetamide): >80 mg/mL
- solubility at 72 h ([8]; dimethyl acetamide, organic solvent or mixture): > 80 mg/mL
- solubility at 72 h ([8]; water): 0.07 mg/mL (≈ 271 µM)
